# Tests used:
# Format in all cases: functional
# ACHN = experiment: Growth inhibition of human ACHN cells after 48 hrs by SRB assay
# T47D = experiment: Growth inhibition of human T47D cells after 48 hrs by SRB assay
# HOP-92 = experiment: Growth inhibition of human HOP92 cells after 48 hrs by SRB assay; conditions: HOP-92, 48 h
# UO-31 = experiment: Growth inhibition of human UO31 cells after 48 hrs by SRB assay; conditions: UO-31, 48 h
# SK-OV-3 = experiment: Growth inhibition of human SKOV3 cells after 48 hrs by SRB assay; conditions: SK-OV-3, 48 h
# [1] = Growth inhibition of human Hs 578T cells after 48 hrs by SRB assay
# SNB-75 = experiment: Growth inhibition of human SNB75 cells after 48 hrs by SRB assay; conditions: SNB-75, 48 h
# A498 = experiment: Growth inhibition of human A498 cells after 48 hrs by SRB assay; conditions: A498, 48 h
# M14 = experiment: Growth inhibition of human M14 cells after 48 hrs by SRB assay; conditions: M14, 48 h
# CAKI-1 = experiment: Growth inhibition of human Caki1 cells after 48 hrs by SRB assay; conditions: CAKI-1, 48 h
# SF-295 = experiment: Growth inhibition of human SF295 cells after 48 hrs by SRB assay; conditions: SF-295, 48 h
# OVCAR-4 = experiment: Growth inhibition of human OVCAR4 cells after 48 hrs by SRB assay; conditions: OVCAR-4, 48 h
# MDA-MB-435 = experiment: Growth inhibition of human MDA-MB-435 cells after 48 hrs by SRB assay; conditions: MDA-MB-435, 48 h
# BT-549 = experiment: Growth inhibition of human BT549 cells after 48 hrs by SRB assay; conditions: BT-549, 48 h
# HCC 2998 = experiment: Growth inhibition of human HCC2998 cells after 48 hrs by SRB assay; conditions: HCC 2998, 48 h
# MDA-MB-231 = experiment: Growth inhibition of human MDA-MB-231 cells after 48 hrs by SRB assay; conditions: MDA-MB-231, 48 h
# HT-29 = experiment: Growth inhibition of human HT-29 cells after 48 hrs by SRB assay; conditions: HT-29, 48 h
# IGROV-1 = experiment: Growth inhibition of human IGROV1 cells after 48 hrs by SRB assay; conditions: IGROV-1, 48 h
# NCI-H522 = experiment: Growth inhibition of human NCI-H522 cells after 48 hrs by SRB assay; conditions: NCI-H522, 48 h
# SK-MEL-2 = experiment: Growth inhibition of human SK-MEL-2 cells after 48 hrs by SRB assay; conditions: SK-MEL-2, 48 h
# MCF7 = experiment: Growth inhibition of human MCF7 cells after 48 hrs by SRB assay; conditions: MCF7, 48 h
# K562 = experiment: Growth inhibition of human K562 cells after 48 hrs by SRB assay; conditions: K562, 48 h
# HCT-116 = experiment: Growth inhibition of human HCT116 cells after 48 hrs by SRB assay; conditions: HCT-116, 48 h
# NCI-H460 = experiment: Growth inhibition of human NCI-H460 cells after 48 hrs by SRB assay; conditions: NCI-H460, 48 h
# SF-539 = experiment: Growth inhibition of human SF539 cells after 48 hrs by SRB assay; conditions: SF-539, 48 h
# RXF 393 = experiment: Growth inhibition of human RXF393 cells after 48 hrs by SRB assay; conditions: RXF 393, 48 h
# PC-3 = experiment: Growth inhibition of human PC3 cells after 48 hrs by SRB assay; conditions: PC-3, 48 h
# SK-MEL-5 = experiment: Growth inhibition of human SK-MEL-5 cells after 48 hrs by SRB assay; conditions: SK-MEL-5, 48 h
# HCT-15 = experiment: Growth inhibition of human HCT15 cells after 48 hrs by SRB assay; conditions: HCT-15, 48 h
# MDA-MB-468 = experiment: Growth inhibition of human MDA-MB-468 cells after 48 hrs by SRB assay; conditions: MDA-MB-468, 48 h
# NCI-H322M = experiment: Growth inhibition of human NCI-H322M cells after 48 hrs by SRB assay
# HL-60(TB) = experiment: Growth inhibition of human HL-60(TB) cells assessed as cell growth at 10^-5 M after 48 hrs by SRB assay; conditions: HL-60, 48 h, read-out: Activity
# MOLT-4 = experiment: Growth inhibition of human MOLT4 cells assessed as cell growth at 10^-5 M after 48 hrs by SRB assay; conditions: MOLT-4, 48 h, read-out: Activity
# [2] = read-out: LC50 (the source's name)
smiles,measurement,setting,value
O=C(CO[N+](=O)[O-])Nc1ccc(C(=O)/C=C/c2ccc(Cl)cc2)cc1,GI50,ACHN,3.3 µM
same,TGI,ACHN,17 µM
same,CC50,ACHN; [2],> 100 µM
same,GI50,T47D,3.26 µM
same,TGI,T47D,14.9 µM
same,CC50,T47D; [2],58.3 µM
same,GI50,HOP-92,2.95 µM
same,TGI,HOP-92,15.2 µM
same,CC50,HOP-92; [2],53.2 µM
same,GI50,UO-31,1.52 µM
same,TGI,UO-31,12.1 µM
same,CC50,UO-31; [2],38.5 µM
same,GI50,SK-OV-3,10.1 µM
same,TGI,SK-OV-3,65.9 µM
same,CC50,SK-OV-3; [2],> 100 µM
same,GI50,[1],2.85 µM
same,TGI,[1],14.2 µM
same,CC50,[1]; [2],> 100 µM
same,GI50,SNB-75,3.19 µM
same,TGI,SNB-75,17.6 µM
same,CC50,SNB-75; [2],47.6 µM
same,GI50,A498,15.4 µM
same,TGI,A498,54.9 µM
same,CC50,A498; [2],> 100 µM
same,GI50,M14,2.05 µM
same,TGI,M14,4.96 µM
same,CC50,M14; [2],17.9 µM
same,GI50,CAKI-1,11.8 µM
same,TGI,CAKI-1,54.5 µM
same,CC50,CAKI-1; [2],> 100 µM
same,GI50,SF-295,5.82 µM
same,TGI,SF-295,29.2 µM
same,CC50,SF-295; [2],> 100 µM
same,GI50,OVCAR-4,4.06 µM
same,TGI,OVCAR-4,21 µM
same,CC50,OVCAR-4; [2],76.5 µM
same,GI50,MDA-MB-435,2.96 µM
same,TGI,MDA-MB-435,11.2 µM
same,CC50,MDA-MB-435; [2],59 µM
same,GI50,BT-549,1.86 µM
same,TGI,BT-549,5 µM
same,CC50,BT-549; [2],> 100 µM
same,GI50,HCC 2998,1.75 µM
same,TGI,HCC 2998,3.64 µM
same,CC50,HCC 2998; [2],7.57 µM
same,GI50,MDA-MB-231,5.39 µM
same,TGI,MDA-MB-231,21.2 µM
same,CC50,MDA-MB-231; [2],62 µM
same,GI50,HT-29,2.36 µM
same,TGI,HT-29,6.36 µM
same,CC50,HT-29; [2],> 100 µM
same,GI50,IGROV-1,13.4 µM
same,TGI,IGROV-1,30 µM
same,CC50,IGROV-1; [2],67.4 µM
same,GI50,NCI-H522,2.31 µM
same,TGI,NCI-H522,8.37 µM
same,CC50,NCI-H522; [2],32.8 µM
same,GI50,SK-MEL-2,9.69 µM
same,TGI,SK-MEL-2,23.3 µM
same,CC50,SK-MEL-2; [2],54.7 µM
same,GI50,MCF7,0.67 µM
same,TGI,MCF7,6.44 µM
same,CC50,MCF7; [2],> 100 µM
same,GI50,K562,2.6 µM
same,TGI,K562,> 100 µM
same,CC50,K562; [2],> 100 µM
same,GI50,HCT-116,0.3 µM
same,TGI,HCT-116,1.09 µM
same,CC50,HCT-116; [2],3.55 µM
same,GI50,NCI-H460,12.7 µM
same,TGI,NCI-H460,54.9 µM
same,CC50,NCI-H460; [2],> 100 µM
same,GI50,SF-539,2.52 µM
same,TGI,SF-539,8.82 µM
same,CC50,SF-539; [2],42.9 µM
same,GI50,RXF 393,4.82 µM
same,TGI,RXF 393,17.8 µM
same,CC50,RXF 393; [2],48.5 µM
same,GI50,PC-3,2.74 µM
same,TGI,PC-3,14.8 µM
same,CC50,PC-3; [2],72.9 µM
same,GI50,SK-MEL-5,4.23 µM
same,TGI,SK-MEL-5,15.4 µM
same,CC50,SK-MEL-5; [2],39.8 µM
same,GI50,HCT-15,2.03 µM
same,TGI,HCT-15,6.53 µM
same,CC50,HCT-15; [2],59.7 µM
same,GI50,MDA-MB-468,2.06 µM
same,TGI,MDA-MB-468,5.07 µM
same,CC50,MDA-MB-468; [2],17.1 µM
same,GI50,NCI-H322M,10.3 µM
same,TGI,NCI-H322M,22.6 µM
same,CC50,NCI-H322M; [2],49.6 µM
O=C(CO[N+](=O)[O-])Nc1ccc(C(=O)/C=C/c2ccc3c(c2)OCO3)cc1,growth at 10 µM,HL-60(TB),73.7%
same,growth at 10 µM,MOLT-4,99.7%

# From ChEMBL document CHEMBL2040759, “Design, synthesis and anticancer activity of nitric oxide donating/chalcone hybrids” (2012)
